Reference: patent publication US20250154144A1 (CHILDREN'S HOSPITAL MEDICAL CENTER, priority 2021, published 2025)
Like-named read-outs stand apart in the source and are kept apart here.

Columns and labels:
MOLM14 D835Y cells = experiment: cells; format: cell-based; conditions: Homo sapiens, MOLM-14, 48 h, 48 hours, Cell Titer Glo; read-out: MOLM14 D835Y IC50
MOLM14 F691L cells = experiment: cells; format: cell-based; conditions: Homo sapiens, MOLM-14, 48 h, 48 hours, Cell Titer Glo; read-out: MOLM14 F691L IC50
FLT3 [1] = biological target: T1, FLT3 (Homo sapiens, UniProt P36888); experiment: RBC HotSpot Kinase Assay, FLT3; conditions: FLT3 IC50
T1 sequence (P36888 610-943 limits assumed): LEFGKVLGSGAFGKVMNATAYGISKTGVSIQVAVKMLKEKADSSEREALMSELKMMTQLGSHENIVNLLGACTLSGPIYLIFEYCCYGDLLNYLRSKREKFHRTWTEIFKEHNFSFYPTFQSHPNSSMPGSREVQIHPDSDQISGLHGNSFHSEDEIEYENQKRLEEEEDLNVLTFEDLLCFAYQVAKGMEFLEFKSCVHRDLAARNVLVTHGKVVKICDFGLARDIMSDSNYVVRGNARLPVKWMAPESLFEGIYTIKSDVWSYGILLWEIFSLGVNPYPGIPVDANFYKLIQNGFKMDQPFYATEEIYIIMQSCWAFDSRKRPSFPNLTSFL

IRAK1 [2] = biological target: T2, IRAK1 (Homo sapiens, UniProt P51617); experiment: RBC HotSpot Kinase Assay, IRAK1; conditions: IRAK1 IC50
IRAK4 [3] = biological target: T3, IRAK4 (Homo sapiens, UniProt Q9NWZ3); experiment: RBC HotSpot Kinase Assay, IRAK4; conditions: IRAK4 IC50
T3 sequence (Q9NWZ3 1-460): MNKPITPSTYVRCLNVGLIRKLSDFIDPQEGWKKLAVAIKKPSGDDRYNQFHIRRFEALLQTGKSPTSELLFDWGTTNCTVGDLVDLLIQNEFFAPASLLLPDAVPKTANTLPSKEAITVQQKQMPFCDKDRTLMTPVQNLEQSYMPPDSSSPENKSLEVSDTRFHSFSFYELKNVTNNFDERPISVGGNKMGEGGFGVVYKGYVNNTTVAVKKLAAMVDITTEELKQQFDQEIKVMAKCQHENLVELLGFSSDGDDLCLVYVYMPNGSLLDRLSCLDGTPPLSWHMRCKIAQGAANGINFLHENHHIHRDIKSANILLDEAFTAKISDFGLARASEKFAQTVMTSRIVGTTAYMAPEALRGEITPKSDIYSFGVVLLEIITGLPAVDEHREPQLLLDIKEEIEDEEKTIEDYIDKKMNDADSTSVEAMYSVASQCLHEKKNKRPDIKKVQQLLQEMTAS

FLT3 [4] = biological target: T4, FLT3 (Homo sapiens, UniProt P36888); experiment: Reaction Biology NanoBRET target engagement assay in HEK-293 cells, FLT3; conditions: NanoBRET FLT3 IC50, HEK-293 cells
T4 sequence (P36888 27-993): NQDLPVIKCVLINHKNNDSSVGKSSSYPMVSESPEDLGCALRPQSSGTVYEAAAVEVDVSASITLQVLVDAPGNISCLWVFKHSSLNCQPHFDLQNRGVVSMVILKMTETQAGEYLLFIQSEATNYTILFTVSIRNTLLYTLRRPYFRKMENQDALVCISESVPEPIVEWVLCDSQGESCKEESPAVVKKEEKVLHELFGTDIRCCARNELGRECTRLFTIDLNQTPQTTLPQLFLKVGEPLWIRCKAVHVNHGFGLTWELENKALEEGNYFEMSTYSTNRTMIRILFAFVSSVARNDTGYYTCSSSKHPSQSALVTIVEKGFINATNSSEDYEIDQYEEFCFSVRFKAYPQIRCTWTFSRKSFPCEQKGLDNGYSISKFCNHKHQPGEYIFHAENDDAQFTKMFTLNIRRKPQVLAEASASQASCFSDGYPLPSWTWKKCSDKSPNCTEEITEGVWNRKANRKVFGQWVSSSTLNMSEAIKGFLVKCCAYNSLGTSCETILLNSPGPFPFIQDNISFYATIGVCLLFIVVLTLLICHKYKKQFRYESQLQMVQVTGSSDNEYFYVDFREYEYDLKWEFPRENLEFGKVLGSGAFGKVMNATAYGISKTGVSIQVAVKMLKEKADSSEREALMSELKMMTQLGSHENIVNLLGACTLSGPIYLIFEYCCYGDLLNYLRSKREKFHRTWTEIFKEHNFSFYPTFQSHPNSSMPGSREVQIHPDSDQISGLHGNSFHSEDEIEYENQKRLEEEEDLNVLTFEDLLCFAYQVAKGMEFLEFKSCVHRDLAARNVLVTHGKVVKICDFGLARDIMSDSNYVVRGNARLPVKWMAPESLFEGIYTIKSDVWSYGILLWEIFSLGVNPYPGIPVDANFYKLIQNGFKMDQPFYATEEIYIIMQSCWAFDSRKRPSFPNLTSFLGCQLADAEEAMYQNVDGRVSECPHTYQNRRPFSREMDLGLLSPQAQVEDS

IRAK4 [5] = biological target: T3, IRAK4; experiment: Reaction Biology NanoBRET target engagement assay in HEK-293 cells, IRAK4; conditions: NanoBRET IRAK4 IC50, HEK-293 cells
THP1 cells = experiment: Combination drug screening, Cell Titer Glo, 10 × 10 matrix, THP1 cells; format: cell-based; conditions: THP1 cells; for Excess HSA Score: 10 × 10
MOLM14(D835Y) cells = format: cell-based; conditions: MOLM14(D835Y) cells; for Excess HSA Score: 10 × 10
IRAK1 [6] = biological target: T2, IRAK1; experiment: DiscoverX KINOMEscan competition binding, IRAK1; set-up: purchased RBC (Reaction Biology) HotSpot assay
IRAK4 [7] = biological target: T3, IRAK4; experiment: DiscoverX KINOMEscan competition binding, IRAK4; set-up: purchased RBC (Reaction Biology) HotSpot assay
[8] = combination with (+)-BAY-1251152
[9] = combination with Eprenetapopt/APR-246
[10] = combination with Venetoclax (ABT-199)

T2 sequence (P51617 whole entry): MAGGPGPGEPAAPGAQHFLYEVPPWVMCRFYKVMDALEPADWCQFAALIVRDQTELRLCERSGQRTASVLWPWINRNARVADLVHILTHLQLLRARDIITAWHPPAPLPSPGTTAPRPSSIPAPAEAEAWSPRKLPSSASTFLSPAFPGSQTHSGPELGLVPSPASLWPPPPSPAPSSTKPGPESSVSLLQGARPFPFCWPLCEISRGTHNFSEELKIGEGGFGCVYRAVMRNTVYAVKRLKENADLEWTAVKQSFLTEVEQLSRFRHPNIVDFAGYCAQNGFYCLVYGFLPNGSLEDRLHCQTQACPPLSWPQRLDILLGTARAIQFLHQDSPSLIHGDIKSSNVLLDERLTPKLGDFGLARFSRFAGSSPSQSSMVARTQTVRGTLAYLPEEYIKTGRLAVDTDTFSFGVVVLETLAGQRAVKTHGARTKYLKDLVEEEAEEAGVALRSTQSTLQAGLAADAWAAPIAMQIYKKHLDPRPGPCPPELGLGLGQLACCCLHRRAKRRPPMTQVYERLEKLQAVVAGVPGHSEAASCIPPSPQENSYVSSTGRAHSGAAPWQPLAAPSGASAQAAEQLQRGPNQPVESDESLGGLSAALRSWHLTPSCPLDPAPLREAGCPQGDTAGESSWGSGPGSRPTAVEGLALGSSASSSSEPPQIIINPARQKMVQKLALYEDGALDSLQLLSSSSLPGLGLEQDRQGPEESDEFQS

IC50 (MOLM14 D835Y cells)	IC50 (MOLM14 F691L cells)	IC50 (FLT3 [1])	IC50 (IRAK1 [2])	IC50 (IRAK4 [3])	IC50 (FLT3 [4])	IC50 (IRAK4 [5])	Compound	Excess HSA Score (THP1 cells; [8])	Excess HSA Score (THP1 cells; combination with AMG-232)	Excess HSA Score (THP1 cells; combination with AZD-5363)	Excess HSA Score (THP1 cells; [9])	Excess HSA Score (THP1 cells; combination with Ivosidenib)	Excess HSA Score (THP1 cells; combination with Lenalidomide)	Excess HSA Score (THP1 cells; combination with Palbociclib)	Excess HSA Score (THP1 cells; combination with Prednisolone)	Excess HSA Score (THP1 cells; combination with SNDX-5613)	Excess HSA Score (THP1 cells; combination with TNO-155)	Excess HSA Score (THP1 cells; combination with Trametinib)	Excess HSA Score (THP1 cells; combination with Ulixertinib)	Excess HSA Score (THP1 cells; [10])	further results
53 nM	596 nM	0.8 nM	24 nM	3 nM	34 nM	< 0.5 nM	CC(C)Oc1ccn2c(-c3ccnc(N[C@H]4CNC[C@@H]4F)n3)cnc2c1 [Compound 25, N-((3S,4S)-4-fluoropyrrolidin-3-yl)-4-(7-isopropoxyimidazo[1,2-a]pyridin-3-yl)pyrimidin-2-amine]														
19 nM	168 nM	< 0.5 nM	53 nM	2 nM	2 nM	< 0.5 nM	CC(C)Oc1ccn2c(-c3ccnc(N[C@@H]4CCCNC4)n3)cnc2c1 [Compound 26, (R)-4-(7-isopropoxyimidazo[1,2-a]pyridin-3-yl)-N-(piperidin-3-yl)pyrimidin-2-amine]														
19 nM	307 nM	< 0.5 nM	6 nM	0.8 nM	65 nM	0.7 nM	COc1ccn2c(-c3ccnc(N[C@H]4CNC[C@@H]4F)n3)cnc2c1 [Compound 28, N-((3S,4S)-4-fluoropyrrolidin-3-yl)-4-(7-methoxyimidazo[1,2-a]pyridin-3-yl)pyrimidin-2-amine]	−347.5	401.8	−208.6	−126.4	313	486.7	−270.8	381.4	492.2	98.5766	−880.8	−60.25	−1412	Comments (THP1 cells; combination with TNO-155): Antagonistic; Comments (THP1 cells; [10]): Synergistic; Excess HSA Score (MOLM14(D835Y) cells; [8]): −477; Excess HSA Score (MOLM14(D835Y) cells; combination with AMG-232): −628.3; Excess HSA Score (MOLM14(D835Y) cells; combination with AZD-5363): −377.1; Excess HSA Score (MOLM14(D835Y) cells; [9]): 330.3; Excess HSA Score (MOLM14(D835Y) cells; combination with Ivosidenib): −92.39; Excess HSA Score (MOLM14(D835Y) cells; combination with Lenalidomide): 340.1; Excess HSA Score (MOLM14(D835Y) cells; combination with Palbociclib): −207.7; Excess HSA Score (MOLM14(D835Y) cells; combination with Prednisolone): −600.8; Excess HSA Score (MOLM14(D835Y) cells; combination with SNDX-5613): 49.85; Excess HSA Score (MOLM14(D835Y) cells; combination with TNO-155): −593.8; Excess HSA Score (MOLM14(D835Y) cells; combination with Trametinib): 115.3; Excess HSA Score (MOLM14(D835Y) cells; combination with Ulixertinib): 57.98; Excess HSA Score (MOLM14(D835Y) cells; [10]): −1089; Comments (MOLM14(D835Y) cells; combination with SNDX-5613): Antagonistic; Comments (MOLM14(D835Y) cells; [10]): Synergistic
24 nM	172 nM	< 0.5 nM	11 nM	2 nM	15 nM	0.8 nM	F[C@H]1CCNC[C@@H]1Nc1nccc(-c2cnc3cc(OC4CC4)ccn23)n1 [Compound 39, 4-(7-cyclopropoxyimidazo [1,2-a]pyridin-3-yl)-N-((3S,4S)-4-fluoropiperidin-3-yl)pyrimidin-2-amine]														
11 nM	69 nM		0.7 nM	< 0.5 nM			COc1cc2ncc(-c3ccnc(N[C@H]4CNC[C@@H]4F)n3)n2cc1C(C)(C)O [Compound 43, 2-(3-(2-(((3S,4S)-4-fluoropyrrolidin-3-yl)amino)pyrimidin-4-yl)-7-methoxyimidazo[1,2-a]pyridin-6-yl)propan-2-ol]														Kd (IRAK1 [6]): 0.33 nM; Kd (IRAK4 [7]): 0.081 nM
9 nM	43 nM	< 0.5 nM	2 nM	0.7 nM	28 nM	< 0.5 nM	COc1cc2ncc(-c3ccnc(N[C@H]4CNCC[C@@H]4F)n3)n2cc1C(C)(C)O [Compound 45, 2-(3-(2-(((3S,4S)-4-fluoropiperidin-3-yl)amino)pyrimidin-4-yl)-7-methoxyimidazo[1,2-a]pyridin-6-yl)propan-2-ol]	−402.7072	138.2	−206.1	183	93.15	388.3	−236	67.79	169.6	−134.2061	−226.2	218.0361	−360.8	Comments (THP1 cells; [8]): Synergistic; Comments (THP1 cells; combination with Prednisolone): Antagonistic; Excess HSA Score (MOLM14(D835Y) cells; [8]): 117.1; Excess HSA Score (MOLM14(D835Y) cells; combination with AMG-232): −212.5; Excess HSA Score (MOLM14(D835Y) cells; combination with AZD-5363): 384.6; Excess HSA Score (MOLM14(D835Y) cells; [9]): 477.7; Excess HSA Score (MOLM14(D835Y) cells; combination with Ivosidenib): −76.48; Excess HSA Score (MOLM14(D835Y) cells; combination with Lenalidomide): 515.9; Excess HSA Score (MOLM14(D835Y) cells; combination with Palbociclib): −172.2; Excess HSA Score (MOLM14(D835Y) cells; combination with Prednisolone): −357.5; Excess HSA Score (MOLM14(D835Y) cells; combination with SNDX-5613): 58.42; Excess HSA Score (MOLM14(D835Y) cells; combination with TNO-155): −372.6; Excess HSA Score (MOLM14(D835Y) cells; combination with Trametinib): −362.6; Excess HSA Score (MOLM14(D835Y) cells; combination with Ulixertinib): 288.2; Excess HSA Score (MOLM14(D835Y) cells; [10]): −803.3; Comments (MOLM14(D835Y) cells; combination with SNDX-5613): Antagonistic; Comments (MOLM14(D835Y) cells; [10]): Synergistic
